From patent US20050048508A1, “Trehalose receptor and method for detecting trehalose with the same” (KABUSHIKI KAISHA HAYASHIBARA SEIBUTSU KAGAKU KENKYUJO, priority 2002, published 2005)
Residues, ends and D or L forms follow the SMILES beside them.

What follows are compounds tested against T1, T1R3 with G protein α-subunits (α15 and α16/Z chimeric protein) (Mus musculus, UniProt Q925D8, I706N) (assay: Intracellular calcium ion assay, 293 cells coexpressing G protein α-subunits and T1R3 (trehalose receptor)). Settings: Table 4: sweet taste substances on cells coexpressing G protein α-subunits and T1R3, measured similarly as in Example 4.
T1 construct: expressed in transfected cells; host or cells: 293 cells, RCB 1637 (human embryonic kidney)
T1 sequence (Q925D8 21-858 I706N): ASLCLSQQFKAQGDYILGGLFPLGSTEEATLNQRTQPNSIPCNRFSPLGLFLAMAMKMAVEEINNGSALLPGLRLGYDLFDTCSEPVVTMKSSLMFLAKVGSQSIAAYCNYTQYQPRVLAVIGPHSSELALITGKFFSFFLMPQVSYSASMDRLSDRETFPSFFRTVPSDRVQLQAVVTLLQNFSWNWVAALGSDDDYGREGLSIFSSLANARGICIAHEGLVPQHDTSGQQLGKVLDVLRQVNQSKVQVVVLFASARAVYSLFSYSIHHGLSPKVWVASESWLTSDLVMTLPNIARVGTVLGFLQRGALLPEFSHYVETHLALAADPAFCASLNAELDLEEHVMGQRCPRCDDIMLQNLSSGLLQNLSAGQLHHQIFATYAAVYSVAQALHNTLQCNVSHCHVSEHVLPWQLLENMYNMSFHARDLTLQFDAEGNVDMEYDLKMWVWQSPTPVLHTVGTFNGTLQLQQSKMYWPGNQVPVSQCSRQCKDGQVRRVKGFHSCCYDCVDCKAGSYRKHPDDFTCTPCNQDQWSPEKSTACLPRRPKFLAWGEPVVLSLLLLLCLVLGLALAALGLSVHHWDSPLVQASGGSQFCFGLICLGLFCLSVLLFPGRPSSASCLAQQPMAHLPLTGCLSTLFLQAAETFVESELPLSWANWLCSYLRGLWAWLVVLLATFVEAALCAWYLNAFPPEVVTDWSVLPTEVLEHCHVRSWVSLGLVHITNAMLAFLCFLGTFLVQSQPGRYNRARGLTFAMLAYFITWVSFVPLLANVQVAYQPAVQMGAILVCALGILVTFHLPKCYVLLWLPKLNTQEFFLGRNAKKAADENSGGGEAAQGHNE
Type: cell-based
Description: The coexpression vector for the G protein α-subunit α15 and the G protein α16/Z chimeric protein (hereinafter designated as “G protein α-subunits”) obtained in Example 1-3 was gene transferred to 293 cells, RCB 1637, a human embryonic kidney cell line, available from the Riken Bioresource Center, Ibaraki, Japan, by conventional lipofection. The gene transferred cells were suspended in Dulbecco's Modified Eagle's Medium (D-MEM) supplemented with 1 mg/L of “PUROMYCIN”, a trade mane of puromycin commercialized by Edge Biosystems, MD, USA, and 10% (v/v) of fetal calf serum to give a cell density of 2×10^6 cells/ml and cultured in a plastic petri dish for cell culture. After 10 to 14 days of incubation, a puromycin-resistant cell colony was collected and confirmed its production of the G protein α-subunit proteins with an index of their mRNA level by conventional RT-PCR. Thus, a cell line capable of expressing the G protein α-subunit proteins was established. To the cells were gene transferred an expression vector for the sweet taste receptor protein T1R1, T1R2, or T1R3 in Example 2-2; or a coexpression vector for a pair of T1R1 and T1R2, T1R1 and T1R3, or T1R2 and T1R3 by conventional lipofection. The resulting cells were suspended in D-MEM supplemented with 1 mg/L of “PUROMYCIN”, 500 mg/L of “GENETICIN”, and 10% (v/v) of fetal calf serum and cultured in a plastic petri dish for cell culture. After 10 to 14 days of incubation, a cell colony resistant to both of the above drugs was collected and confirmed that the transferred gene had been expressed intracellularly as expected by conventional RT-PCR at a mRNA level. Thus, a cell, which had coexpressed the desired G proteins and sweet taste receptors, was obtained. As a control, a cell, into which an expression vector with no G protein α-subunit protein gene or sweet taste receptor protein gene, was prepared and used.
The captioned reactivity test was conducted according to a conventional intracellular calcium ion assay: 293 Cells prepared in Example 3, capable of coexpressing the G protein α-subunits and the sweet taste receptor(s), were cultured in a plastic petri dish for cell culture until reaching its confluent phase. Thereafter, the cells were detached from the inner surface of the petri dish with a 0.05% (v/v) trypsin solution and a 0.53 mM EDTA solution, suspended in D-MEM supplemented with 10% (v/v) fetal calf serum to give a cell density of 1×10^6 cells/ml, and allowed to intake “FLUO-4. AM”, a reagent for detecting intracellular calcium ion commercialized by Molecular Probes Inc., Ore., USA, by adding to the cell suspension to give a final concentration of 2 μM and incubating the cells at 37 ° C. for 30 to 90 min. The resulting cells were washed with a buffer for detecting calcium ion, which contained 10 mM HEPES (pH 7.4), 130 mM sodium chloride, 5.4 mM potassium chloride, 2 mM calcium chloride, 1 mM magnesium chloride, 5.5 mM D-glucose, 0.1% (v/v) calf serum albumin, and 1 mM sodium pyruvate to remove the reagent remained extracellularly; suspended in a fresh preparation of the same buffer to give a cell density of 2.67 ×10^7 cells/ml; filtered with a membrane with a pore size of 100 μm mesh; and allowed to stand at 25° C. for 30 min. Two milliliters of the resultant cell suspension was injected into a glass cuvette, commercialized by Hitachi, Ltd., Tokyo, Japan, and analyzed on “HITACHI 650-40”, a fluorescence spectrophotometer commercialized by Hitachi, Ltd., Tokyo, Japan. […]

SMILES | Influx of calcium ion
C[C@H](N)C(=O)O [Alanine] | Negative
O=C(CO)[C@@H](O)[C@H](O)[C@H](O)CO [Fructose] | Negative
OC[C@@H](O)[C@@H](O)CO [Erythritol] | Negative
COC(=O)[C@H](Cc1ccccc1)NC(=O)[C@@H](N)CC(=O)O [Aspartame] (HELM PEPTIDE1{D.F.[CO[*:1]]}$$$$V2.0) | Negative
O=C[C@H](O)[C@@H](O)[C@@H](O)[C@H](O)CO [Galactose] | Negative

Continued, values first:

Influx of calcium ion | SMILES
Negative | NCC(=O)O [L-Glycine]
Negative | OC[C@H]1O[C@H](O[C@]2(CCl)O[C@H](CCl)[C@@H](O)[C@@H]2O)[C@H](O)[C@@H](O)[C@H]1Cl [Sucralose]
Negative | OC[C@@H](O)[C@@H](O[C@H]1O[C@H](CO)[C@@H](O)[C@H](O)[C@H]1O)[C@H](O)[C@@H](O)CO [Maltitol]
